{"source": "patent US20250288599A1", "about": "“PHARMACEUTICAL COMPOSITIONS AND METHODS FOR TREATING OSTEOARTHRITIS” (INSIGNIA PHARMACEUTICALS, LLC, priority 2024, published 2025)", "key": {"[1]": {"tested_on": "Col2a1 expression in low passage osteoarthritic chondrocytes", "test": "Col2a1 relative expression in low passage osteoarthritic chondrocytes", "type": "cell-based, human", "conditions": "day 28"}, "[2]": {"tested_on": "ACAN expression in human osteoarthritic chondrocytes", "test": "ACAN relative expression in human osteoarthritic chondrocytes (passage 5) cultured 27 days", "type": "cell-based", "conditions": "50 micromolar Dec, 0.1 μM Dxp, 100 mM Lac", "excerpt": "Delta-delta relative gene expression was employed to determine ACAN regulation in the 27-day samples referenced in Examples 15 and 16. A 3.81±0.77-fold increase in ACAN expression in the cells after 27 days of Lac treatment was observed. […] Without being bound by theory, it is hypothesized that these findings indicate that metabolic management and/or metabolite feedback loops represent promising therapy targets for osteoarthritis. Results associated with Example 17 are depicted in FIG. 53."}, "[3]": {"tested_on": "PGE2 release from normal human chondrocytes", "test": "IL-1β-induced PGE2 release from normal human chondrocyte monolayers, 48 h, competitive EIA", "type": "cell-based", "procedure": "Mechanical stress and inflammation are thought to sustain catabolic cycles of extracellular matrix deterioration during osteoarthritis. In particular, PGE2 correlates with increased protease production and discomfort or pain in osteoarthritis.\nAfter 48-hours, PGE2 release was evaluated by competitive EIA, and relative potency was calculated versus dose responses of Dex alone.\nAfter 48 hours, PGE2 release was evaluated by competitive enzyme immunoassay (EIA), and relative potency was calculated versus Dex alone.\n(§1) Lac is commonly thought to be simply an end-product of anaerobic glycolysis; however, it may also have immunomodulatory effects and promote protein modifications that alter gene expression. The goal of this experiment was to determine how Lac supplementation affects early-phase, inflammatory, and late-stage redifferentiation in chondrocyte models. To establish how Lac may influence inflammation early in osteoarthritis, monolayers of normal human chondrocytes were exposed to Lac dose responses of up to 100 millimolar, concurrently with 0.5 nanograms per milliliter IL-1β for 48 hours. The release of PGE2 was then quantified using competitive EIA. To investigate how Lac affects transcriptional programs in dedifferentiated osteoarthritic chondrocytes, monolayer cultures and micromass pellets were treated for 14 days with 100 millimolar final concentrations of Lac, with and without 10 nanograms per milliliter transforming growth factor beta 3 (TGF-β3). Total RNA was then isolated, and relative expression of SOX9 or Col2a1 was calculated using qRT-PCR, normalized to GAPDH."}, "[4]": {"tested_on": "SOX9 expression in dedifferentiated osteoarthritic chondrocytes", "test": "SOX9 relative expression in high passage osteoarthritic chondrocyte monolayer model with TGF-β", "type": "cell-based, human", "conditions": "14 days in culture with TGF-β; 28 mM Lac, 100 mm LA", "procedure": "(§2) These compounds were tested in a high passage osteoarthritic chondrocyte monolayer model, alone or in combination with other agents, for both transcriptional regulation of standard markers and IL-1β-induced PGE2 production."}, "[5]": {"tested_on": "RUNX2 expression in human osteoarthritic chondrocytes", "test": "RUNX2 relative expression in low passage osteoarthritic chondrocytes, 7, 14 or 28 days", "type": "cell-based", "conditions": "7, 14, 28 days", "procedure": "(§3) Media was exchanged bi-weekly. Chondrocytes cultured for 7 days, 14 days, or 28 days were analyzed to assess SOX9 and RUNX2 expression. SOX9 is a transcription factor vital to the development and maintenance of cartilage and is required for chondrogenesis. SOX9 promotes chondrocyte survival and transcriptionally activates cartilage-specific genes. SOX9 is repressed in hypertrophic chondrocytes (i.e. terminally differentiated osteoblast-like cells).\nThe RUNX2 expression is provided at 7, 14, and 28 days of culturing."}, "[6]": {"tested_on": "MMP12 expression in normal human dermal fibroblasts (NHDF)", "test": "MMP12 mRNA in NHDF activated with IL-1β, 24 h, qRT-PCR", "type": "cell-based", "conditions": "IL-1β 0.1 ng/ml, 100 mM Lac or 0.1 mM Dxp, IL-1β alone 17.8±12.3", "procedure": "After 24 hours, total mRNA was isolated and delta-delta Cp relative expression was calculated versus untreated medium controls, normalized to the housekeeping gene, GAPDH. Statistical analysis was then conducted via t-test."}, "[7]": {"tested_on": "SOX9 expression in dedifferentiated osteoarthritic chondrocytes", "test": "SOX9 relative expression in dedifferentiated osteoarthritic chondrocytes treated 14 days with Lac", "type": "cell-based, human", "excerpt": "as §1, with “GAPDH. […] Lac may also have beneficial effects on osteoarthritic chondrocytes; 100 millimolar final Lac concentrations increased the relative expression of SOX9 and Col2a1 by 8-fold and 1600-fold, respectively, in monolayer cultures. […]” for “GAPDH.”"}, "[8]": {"tested_on": "Col2a1 expression in human osteoarthritic chondrocytes", "test": "Col2a1 relative expression in human osteoarthritic chondrocytes (passage 5) cultured 27 days", "type": "cell-based", "conditions": "50 micromolar Dec, 0.1 μM Dxp, 100 mM Lac", "procedure": "(§4) To evaluate the biological ramifications of the SOX9 to RUNX2 regulation mentioned above, delta-delta relative gene expression was assessed against medium controls, with normalization to GAPDH for both Col2a1 and Col1a1 in the samples tested with reference to Example 15. […] Moreover, treatment with 100 mM Lac increased collagen expression (49.88±4.31 and 1.63±0.20 for Col2a1 and Col1a1, respectively; FIGS. 51 and 52)."}, "[9]": {"tested_on": "SOX9 expression in human osteoarthritic chondrocytes", "test": "SOX9 relative expression in high and low passage osteoarthritic chondrocytes, 7, 14 or 28 days", "type": "cell-based", "excerpt": "as §3, with “Chondrocytes cultured for 7 days, 14 days, or 28 days were analyzed to assess SOX9 and RUNX2 expression.” left out"}, "[10]": {"tested_on": "Col2a1 expression in dedifferentiated osteoarthritic chondrocytes", "test": "Col2a1 relative expression in dedifferentiated osteoarthritic chondrocytes treated 14 days with Lac", "type": "cell-based, human", "excerpt": "as §1, with “GAPDH. […] Lac may also have beneficial effects on osteoarthritic chondrocytes; 100 millimolar final Lac concentrations increased the relative expression of SOX9 and Col2a1 by 8-fold and 1600-fold, respectively, in monolayer cultures. […] Furthermore, adding Lac with TGF-β3 to micromass cultures increased SOX9 and Col2a1 by 9-fold and 88-fold, respectively.” for “GAPDH.”"}, "[11]": {"tested_on": "Col2a1 expression in dedifferentiated osteoarthritic chondrocytes", "test": "Col2a1 relative expression in high passage osteoarthritic chondrocyte monolayer model with TGF-β", "type": "cell-based, human", "conditions": "14 days in culture with TGF-β; 28 mM Lac, 100 mm LA", "procedure": "as §2"}, "[12]": {"tested_on": "Col1a1 expression in human osteoarthritic chondrocytes", "test": "Col1a1 relative expression in human osteoarthritic chondrocytes (passage 5) cultured 27 days", "type": "cell-based", "conditions": "50 micromolar Dec, 0.1 μM Dxp, 100 mM Lac", "procedure": "as §4"}, "[13]": {"conditions": "100 millimolar Lac with TGF-β3, 14 days, micromass cultures"}, "[14]": {"conditions": "100 millimolar Lac, 14 days, monolayer cultures"}, "[15]": {"conditions": "low passage osteoarthritic chondrocytes, 7, 14, 28 days"}}}
{"smiles": "CC(O)C(=O)O", "note": "(stereo not drawn) [Lac, lactate]", "values": [{"measurement": "relative expression of Col2a1", "setting": "[1]", "result": "elevated Col2a1 relative expression"}, {"measurement": "ACAN delta-delta relative gene expression", "setting": "[2]", "result": "3.81±0.77", "unit": "fold"}, {"measurement": "concentration with statistically significant effect on PGE2 release", "setting": "[3]; IL-1β 48 h", "result": "≥ 10", "unit": "millimolar"}, {"measurement": "inhibition of PGE2 release", "setting": "[3]; Lac 100 millimolar, 0.5 ng/mL IL-1β, 48 h", "result": "complete inhibition"}, {"measurement": "increase in SOX9 transcription", "setting": "[4]", "result": 2, "unit": "fold"}, {"measurement": "RUNX2 expression", "setting": "[5]", "result": "temporal decrease in RUNX2"}, {"measurement": "relative expression of MMP12", "setting": "[6]", "result": "2.2±0.8"}, {"measurement": "increase in SOX9", "setting": "[7]; [13]", "result": 9, "unit": "fold"}, {"measurement": "increase in relative expression of SOX9", "setting": "[7]; [14]", "result": 8, "unit": "fold"}, {"measurement": "Col2a1 delta-delta relative gene expression", "setting": "[8]", "result": "49.88±4.31", "unit": "fold"}, {"measurement": "SOX9 expression", "setting": "[9]; high passage, dedifferentiated osteoarthritic chondrocytes with TGF-β3, 14 days", "result": "increased SOX9 transcription"}, {"measurement": "SOX9 expression", "setting": "[9]; [15]", "result": "temporal increase in SOX9"}, {"measurement": "ratio of SOX9/RUNX2", "setting": "[9]; [15]", "result": "temporally increased"}, {"measurement": "increase in Col2a1", "setting": "[10]; [13]", "result": 88, "unit": "fold"}, {"measurement": "increase in collagen", "setting": "[10]; 100 millimolar Lac, 14 days, micromass pellets", "result": 11, "unit": "fold"}, {"measurement": "increase in relative expression of Col2a1", "setting": "[10]; [14]", "result": 1600, "unit": "fold"}, {"measurement": "increase in Col2a1 compared to controls", "setting": "[11]", "result": 30, "unit": "fold"}, {"measurement": "Col1a1 delta-delta relative gene expression", "setting": "[12]", "result": "1.63±0.20", "unit": "fold"}]}
